# Assay: gradient 5% acetonitrile 3 min, to 50% in 2 min, to 85% in 15 min, held 3 min, 100 µL/min
# Conditions: column: Zorbax Extend-C18 2.1 x 50 mm; eluents: water / acetonitrile, 0.1% formic acid
# Procedure, shortened: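 Retention time was recorded from adduct peaks, which were picked computationally and each inspected manually. Pure standards ran in mixtures of ~100 molecules on HPLC coupled to a quadrupole time-of-flight mass spectrometer, in positive and negative ionization mode, through a Zorbax Extend-C18 column (2.1 × 50 mm, 1.8 μm) at 100 μL/min. Eluents were water and acetonitrile, each with 0.1% formic acid.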
row,Compound,RP-LC retention time [s]
1,CCC1(O)CCOC2(CCN(Cc3ccc(OC)c(C)c3)CC2)C1 (stereo unspecified),575
2,CN1C(=O)NC2NCN(C)C2C1=O (stereo unspecified),576
3,COc1cc([C@@H]2c3cc4c(cc3[C@H](O)[C@@H](CO)[C@@H]2C(=O)NC2CCCC2)OCO4)cc(OC)c1OC,689
4,CN(CC1CCOCC1)S(=O)(=O)c1cccc(F)c1,811
5,Cc1ccc(N2CCC(NC(=O)C3CCCCC3)C2=O)cc1 (stereo unspecified),520
6,CN(C)CCC[C@@]1(c2ccc(F)cc2)OCc2cc(C#N)ccc21,724
7,CCCCC(=O)Nc1nc(-c2ccc3c(c2)NC(=O)CO3)cs1,801
8,Cc1ccc(C)c(NC(=O)N2C[C@@H](F)C[C@H]2C(=O)N2CCc3ccccc3C2)c1,836
9,CCOC(=O)C1=C(CN2CCN(c3ccccc3F)CC2)NC(=O)NC1c1cccc(OC)c1OC (stereo unspecified),730
10,c1ccc(SCc2nnc3sc(-c4cccnc4)nn23)cc1,742
11,CC(=O)N1CCc2cc(S(=O)(=O)C(C)CC(=O)N3CCN(c4ccccc4F)CC3)ccc21 (stereo unspecified),826
12,O=C(Nc1ccccc1)N1CCc2nc[nH]c2C1,560
13,CCCn1c(=O)sc2cc(S(=O)(=O)N3CCC(C(=O)NC(C)(C)CC)CC3)ccc21,979
14,Cc1cc(C(=O)NC2CCCCC2)nn1C,755
15,COCCOCc1nc(C2CCCN2C(=O)c2cccs2)no1 (stereo unspecified),690
16,O=C(Nc1ccc2sccc2c1)c1ccc([N+](=O)[O-])s1,924
17,CCOC(=O)C1CCN(C(=O)Cc2nnc(-c3sccc3C)o2)CC1,774
18,Cc1cc(C)n(CCNC(=O)C2(c3cccs3)CCCC2)n1,736
19,O=S(=O)(CCc1noc(-c2cc(F)cc(F)c2)n1)c1ccccc1,939
20,Cc1cc(=O)n(CC(=O)NCc2ccc(F)c(Cl)c2)c(N)n1,863

row,Compound,RP-LC retention time [s]
1,O=S(=O)(Cc1ccccc1Cl)N1CCC(CN2CCCCCC2)CC1,675
2,CCOC(=O)c1c(C)[nH]c(C)c1S(=O)(=O)N1CCC(C(=O)Nc2cccc(C#N)c2)CC1,797
3,O=C1[C@H]2CN(Cc3cc(F)c(F)c(F)c3)C[C@H]2C(=O)N1CCc1ccccc1,982
4,O=C(CSc1nnc(-c2ccco2)n1-n1cccc1)Nc1cccc(C(F)(F)F)c1,897
5,O=C(CN1C(=O)NC2(CCCCC2)C1=O)NCc1ccc2c(c1)OCO2,699
6,Cc1nc(-c2cccc(C(=O)NC(C)C)c2)no1,596
7,CC(C)Cc1cc(-c2nn3c(-c4ccc(F)cc4)nnc3s2)n[nH]1,1010
8,CCCNC(=O)c1cnn(-c2ccc(SCC)nn2)c1C,777
9,c1cn(-c2cc(NC3CCCCC3)ncn2)cn1,617
10,Cc1ccc2[nH]cc(CCN3CC(C(=O)NC4CCCCCCC4)CC3=O)c2c1 (stereo unspecified),907
11,O=C(NCCc1c[nH]c2ccc(Cl)cc12)Nc1ccccc1,879
12,Cc1cc(C)n2nc(SCC(=O)Nc3ccc(Br)cc3F)nc2n1,850
13,COc1cc(C2C(=O)N(C3CCCCC3)CC(=O)N2Cc2ccco2)ccc1OC(C)C (stereo unspecified),964
14,Cc1cc(F)ccc1NC(=O)COc1cc(C(F)(F)F)c2c(C)nn(C)c2n1,985
15,Cc1cccc(NC(=O)N2CCCC2c2cc(C)no2)c1 (stereo unspecified),780
16,CC1CCCN(CC2CCN(S(=O)(=O)Cc3ccccc3Cl)CC2)C1 (stereo unspecified),662
17,Cc1cnc(C2CC2)n1C1CCCN(C(=O)NC(C)C)C1 (stereo unspecified),587
18,Cc1ccc(CN(CC(=O)N2CCNCC2)C(=O)c2sccc2C)cc1C,669
19,COc1ccc(CCNC(=O)C2CCN(S(=O)(=O)N(CC(C)C)CC(C)C)CC2)cc1OC,992

# Second part, the compound after the results:
row,RP-LC retention time [s],Compound
1,1110,CCc1ccc(Oc2cc(N3CCC(C(=O)NC4CCCCCC4)CC3)ncn2)cc1
2,725,CN1C(=O)c2cccnc2Sc2cc(NC(=O)c3ccsc3)ccc21
3,611,CCOc1cc2c(cc1OCC)C1C(C(=O)Nc3cccnc3)c3ccccc3C(=O)N1CC2 (stereo unspecified)
4,800,COc1ccc(-c2nc3ncccn3c2Nc2ccc(C)cc2C)cc1
5,1140,COc1ccc(OCC(=O)Nc2nc(-c3ccc(Cl)cc3)cs2)cc1
6,759,CCN1c2ccc(F)cc2C(=O)NC12CCN(C(=O)c1ccccc1OC)CC2
7,570,CC(=O)Nc1nc2ccc(CC(=O)N3CCN(c4ccccn4)CC3)cc2s1
8,680,Cc1ccc(C(=O)Nc2ccc3c(c2)CCC(=O)N3)s1
9,1200,Cc1nc2cc(-c3noc(Cc4cccs4)n3)ccc2n(C2CCCC2)c1=O
10,1020,O=C(c1ccc(Br)o1)N1CCN(c2ccc(-c3noc(C4CC4)n3)cc2)CC1
11,661,COc1ccc(NC(=O)Cn2nc3cc(-c4ccccc4)nc(C)n3c2=O)cc1
12,768,Cc1cccc(-c2nc3nc(C)cc(N4CCCC4)n3n2)c1
13,610,COc1cccc(N2CCN(Cc3nc4nc(C)cc(N(C)C)n4n3)CC2)c1
14,719,CC(C)N1CCn2c(nc3cc(C(=O)NCc4ccccc4Cl)ccc32)C1=O
15,776,CCCCC(=O)Nc1ccc2nc(N3CCN(c4cccc(C)c4C)CC3)cc(C(=O)O)c2c1
16,596,O=C1NCCCn2cc(S(=O)(=O)Nc3ccc(N4CCOCC4)cc3)cc21
17,725,Cc1ccc(F)cc1NC(=O)CN1CCC(c2nc(-c3cccs3)no2)CC1
18,816,CC1(C(=O)NCc2ccccc2)Cn2cnc(C(=O)NCc3ccccc3Cl)c2C(=O)N1C1CC1 (stereo unspecified)
19,711,COc1ccc(C2(C(=O)N3CCCOCCNC(=O)[C@@H]4CCC[C@@H]43)CC2)cc1
20,667,O=C(NCC1CC1)c1cccc(OC2CN(Cc3cc4ccccc4nc3Cl)C2)c1
21,731,CCc1ccc(C(=O)N2CCN(c3cc(-c4ccc(C)cc4)ncn3)CC2)cc1
22,653,CCOC(=O)c1cccc(Nc2c(C(=O)N3CCCC(C)C3)cnc3nc(C)ccc23)c1 (stereo unspecified)
23,1120,COc1ccc(-c2csc(NC(=O)CSc3nc4c(cc3C#N)CCC4)n2)cc1
24,1040,CCc1ccc(N2CC(c3noc(-c4ccc(OC)cc4OC)n3)CC2=O)cc1 (stereo unspecified)
25,604,CCOc1ccc(C2=NC3(CCN(C)CC3)NC(c3ccccc3O)C2)cc1 (stereo unspecified)
26,944,COc1ccccc1NC(=O)Cn1nc2cc(-c3ccccc3)nc(C)n2c1=O

row,RP-LC retention time [s],Compound
1,841,CC(C)Sc1ccc(CC(=O)NCC(C)(O)c2ccccc2)cc1 (stereo unspecified)
2,650,CC1=C(c2ccccc2)S(=O)(=O)N=C1N1CCC(NC(=O)C2CCOC2)CC1 (stereo unspecified)
3,1020,O=C(c1cccc(Br)c1)N1CCc2nc(-c3ccccc3)ncc2C1
4,848,O=C(Nc1ccc(Cl)cc1)N1CCC(n2cnc3cc(F)ccc3c2=O)CC1
5,836,O=C(Cn1c(C(F)(F)F)nc2cc3c(cc21)OCCO3)Nc1ccc2c(c1)OCCCO2
6,1230,CCOc1ccc(-c2csc(Cc3nc(-c4ccc(OC)cc4)no3)n2)cc1
7,618,Cc1noc(CNC(=O)C2CCN(C(=O)c3ccc(S(=O)(=O)N(C)C)cc3)CC2)n1
8,1040,COc1ccc(NC(=O)Cn2cccc2-c2nc(-c3ccc4c(c3)OCO4)no2)cc1OC
9,869,Cc1ccccc1CN1N=C(C(=O)N2CCCC2)S(=O)(=O)c2ccccc21
10,932,COc1ccc(-c2ccnn2-c2ccc(SCC(=O)NC(C)C)nn2)cc1
11,659,CCc1ccccc1NC(=O)Cn1c(N2CCCC2)nc(C)cc1=O
12,614,Cc1ccnc(NC(=O)C2CCN(S(=O)(=O)c3cc(C(=O)N4CCOCC4)cs3)CC2)c1
13,762,Cc1ccc(N2CCC(NC(=O)CC(C)C)C2=O)cc1 (stereo unspecified)
14,916,Cc1ccc(CNC(=O)c2cnc(-c3ccccc3)nc2-c2ccncc2)cc1C
15,726,Cc1nn(CCC(=O)NCCc2ccco2)c(=O)c2nn(-c3ccccc3)c(C)c12
16,610,CCn1nccc1C(=O)N1CC(n2cc(C(=O)N3CCOCC3)nn2)C1
17,758,Cc1nn(CC(=O)NCCc2ccco2)c(=O)c2nn(-c3ccccc3)c(C)c12
18,799,Cc1ccccc1Nc1c(-c2ccccc2)nc2ccc(Br)cn12
19,1080,CSc1cccc(NC(=O)Cn2nc(-n3cccc3)c3c(C)cc(C)nc32)c1
20,987,CCc1noc(-c2cc(=O)n(CC(=O)Nc3ccccc3Cl)c3ccccc23)n1
21,1020,O=C(CSc1ccc(F)cc1)OCc1cc(-c2ccc3c(c2)OCO3)on1
22,719,N#CCNC(=O)c1ccc(-c2ccnc(Nc3ccc(N4CCOCC4)cc3)n2)cc1
23,823,Cc1ccc(Nc2nc(C)cc(N3CCN(S(=O)(=O)c4cc(F)ccc4C)CC3)n2)cc1
24,1080,Cc1ccc2oc(-c3noc(C(=O)NCc4ccc(C)o4)n3)c(C)c2c1
25,1360,CCn1nccc1-c1cccc(-c2noc(-c3cccc(Cl)c3)n2)c1
26,718,O=C(c1ccc(OCC2CCN(C(=O)c3ccco3)CC2)cc1)N1CCOCC1

# — the METLIN SMRT retention time set (Domingo-Almenara et al. 2019)
